Drawing on PubChem BioAssay AID180 (DTP/NCI, 2004), this text covers T/C for seven compounds.

“And” between values parts separate entries of the source, which are not always exact repeats. Equal entries are not always repeated.

This assay relates to BDF1 mice, Adenocarcinoma 755 s.c., tumor weight T/C. Briefly: NCI In Vivo Anticancer Drug Screen. Data for tumor model Adenocarcinoma 755 (subcutaneous) in B6D2F1 (BDF1) mice. Particulars: endpoint: mean tumor weight, higher = larger tumour. In outline:
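Values express treated (T) relative to vehicle-dosed control (C) animals, based on survival or tumour size measured after compound treatment of mice bearing a transplanted tumour.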

`CCCCOP(=S)(N1CC1)N1CC1`: the T/C (usually the ratio of treated to control) is 44 % of control (dose: 0.19 mg/kg/injection, schedule: Q01DX011 (ip), vehicle: other); 102 % of control (dose: 0.19 mg/kg/injection, schedule: Q01DX011 (ip), vehicle: saline); 38 % of control (dose: 0.37 mg/kg/injection, schedule: Q01DX011 (ip), vehicle: other); 97 % of control (dose: 0.37 mg/kg/injection, schedule: Q01DX011 (ip), vehicle: saline); 73 % of control (dose: 0.75 mg/kg/injection, schedule: Q01DX011 (ip), vehicle: carboxymethylcellulose (CMC)); 26 % of control (dose: 0.75 mg/kg/injection, schedule: Q01DX011 (ip), vehicle: other). In addition, the T/C runs as follows: (dose: 0.75 mg/kg/injection, schedule: Q01DX011 (ip), vehicle: saline) 113 % of control; (dose: 1.5 mg/kg/injection, schedule: Q01DX011 (ip), vehicle: carboxymethylcellulose (CMC)) 78 % of control; (dose: 1.5 mg/kg/injection, schedule: Q01DX011 (ip), vehicle: other) 14 % of control; (dose: 1.5 mg/kg/injection, schedule: Q01DX011 (ip), vehicle: saline) 90 % of control; (dose: 3.0 mg/kg/injection, schedule: Q01DX011 (ip), vehicle: carboxymethylcellulose (CMC)) 23 % of control; (dose: 3.0 mg/kg/injection, schedule: Q01DX011 (ip), vehicle: other) 7 % of control. Also, the T/C (dose: 3.0 mg/kg/injection, schedule: Q01DX011 (ip), vehicle: saline) is 42 % of control; the T/C (dose: 3.0 mg/kg/injection, schedule: Q## X000 (ip), vehicle: saline) is 460 % of control; the T/C (dose: 6.0 mg/kg/injection, schedule: Q## X000 (ip), vehicle: saline) is 153 % of control; the T/C (dose: 12.0 mg/kg/injection, schedule: Q## X000 (ip), vehicle: saline) was 23 % of control.

As to `Nc1nc(SCc2ccc([N+](=O)[O-])cc2)c2ncn(C3OC(CO)C(O)C3O)c2n1` (centres undefined), the T/C was 23 % of control (dose: 18.75 mg/kg/injection, schedule: Q01DX011 (ip), vehicle: methylcellulose (MC)); 20 % of control (dose: 37.5 mg/kg/injection, schedule: Q01DX011 (ip), vehicle: methylcellulose (MC)); 8 % of control (dose: 75.0 mg/kg/injection, schedule: Q01DX011 (ip), vehicle: methylcellulose (MC)).

`NOCC(=O)O`: the T/C (dose: 6.25 mg/kg/injection, schedule: Q01DX011 (ip), vehicle: water) was 62 % of control; the T/C (dose: 12.5 mg/kg/injection, schedule: Q01DX011 (ip), vehicle: other) is 54 % of control; the T/C (dose: 12.5 mg/kg/injection, schedule: Q01DX011 (ip), vehicle: water) was 68 % of control and 70 % of control; the T/C (dose: 18.75 mg/kg/injection, schedule: Q01DX011 (ip), vehicle: other) was 65 % of control; the T/C (dose: 25.0 mg/kg/injection, schedule: Q01DX011 (ip), vehicle: water) was 29 % of control.

Consider `C/C(=N\NC(=O)c1ccncc1)c1cc(Cl)ccc1Cl`, for which the T/C reads like this: (dose: 30.0 mg/kg/injection, schedule: Q01DX011 (ip), vehicle: methylcellulose (MC)) 51 % of control; (dose: 60.0 mg/kg/injection, schedule: Q01DX011 (ip), vehicle: methylcellulose (MC)) 27 % of control.

As to `CCCCn1cnc2c(SCCc3ccccc3)nc(N)nc21`, the T/C reads like this: (dose: 50.0 mg/kg/injection, schedule: Q01DX011 (ip), vehicle: methylcellulose (MC)) 37 % of control; (dose: 100.0 mg/kg/injection, schedule: Q01DX011 (ip), vehicle: methylcellulose (MC)) 42 % of control; (dose: 200.0 mg/kg/injection, schedule: Q01DX011 (ip), vehicle: methylcellulose (MC)) 26 % of control.

For the compound `Cn1cnc([N+](=O)[O-])c1Sc1ncnc2nc[nH]c12`, the T/C (dose: 0.03 mg/kg/injection, schedule: Q01DX011 (oral), vehicle: other) was 79 % of control; the T/C (dose: 0.06 mg/kg/injection, schedule: Q01DX011 (oral), vehicle: other) is 63 % of control; the T/C (dose: 0.12 mg/kg/injection, schedule: Q01DX011 (oral), vehicle: other) is 48 % of control; the T/C (dose: 0.25 mg/kg/injection, schedule: Q01DX006 (iv), vehicle: other) was 64 % of control; the T/C (dose: 0.25 mg/kg/injection, schedule: Q01DX011 (oral), vehicle: other) is 36 % of control; the T/C (dose: 0.5 mg/kg/injection, schedule: Q01DX006 (iv), vehicle: other) is 58 % of control. The T/C (dose: 0.5 mg/kg/injection, schedule: Q01DX011 (oral), vehicle: other) was 40 % of control; the T/C (dose: 1.0 mg/kg/injection, schedule: Q01DX006 (iv), vehicle: other) was 16 % of control; the T/C (dose: 1.0 mg/kg/injection, schedule: Q01DX011 (oral), vehicle: other) is 5 % of control and 10 % of control; the T/C (dose: 2.0 mg/kg/injection, schedule: Q01DX006 (iv), vehicle: other) was 9 % of control; the T/C (dose: 2.0 mg/kg/injection, schedule: Q01DX011 (ip), vehicle: other) is 3 % of control; the T/C (dose: 2.5 mg/kg/injection, schedule: Q01DX011 (ip), vehicle: methylcellulose (MC)) was 15 % of control and 36 % of control. Also, the T/C is 2 % of control (dose: 2.5 mg/kg/injection, schedule: Q01DX011 (oral), vehicle: other); 56 % of control (dose: 3.1 mg/kg/injection, schedule: Q01DX001 (ip), vehicle: other); 3 % of control (dose: 4.0 mg/kg/injection, schedule: Q01DX006 (iv), vehicle: other); 3 % of control (dose: 4.0 mg/kg/injection, schedule: Q01DX011 (im), vehicle: other); 17 % of control (dose: 4.0 mg/kg/injection, schedule: Q01DX011 (iv), vehicle: other); 1 % of control (dose: 4.0 mg/kg/injection, schedule: Q01DX011 (sc), vehicle: other). Also, the T/C is, setting by setting: (dose: 4.0 mg/kg/injection, schedule: Q#A X022 (ip), vehicle: other) 2 % of control; (dose: 5.0 mg/kg/injection, schedule: Q01DX011 (ip), vehicle: methylcellulose (MC)) 4 % of control and 7 % of control; (dose: 6.3 mg/kg/injection, schedule: Q01DX001 (ip), vehicle: other) 52 % of control; (dose: 8.0 mg/kg/injection, schedule: Q01DX011 (im), vehicle: other) 1 % of control; (dose: 8.0 mg/kg/injection, schedule: Q01DX011 (iv), vehicle: other) 2 % of control; (dose: 9.5 mg/kg/injection, schedule: Q01DX011 (ip), vehicle: methylcellulose (MC)) 2 % of control and 8 % of control. Further, the T/C was 4 % of control and 7 % of control (dose: 10.0 mg/kg/injection, schedule: Q01DX011 (ip), vehicle: methylcellulose (MC)); 2 % of control (dose: 12.0 mg/kg/injection, schedule: Q03DX004 (ip), vehicle: other); 28 % of control (dose: 12.5 mg/kg/injection, schedule: Q01DX001 (ip), vehicle: other); 1 % of control (dose: 16.0 mg/kg/injection, schedule: Q01DX011 (iv), vehicle: other); 2 % of control (dose: 19.0 mg/kg/injection, schedule: Q01DX011 (ip), vehicle: methylcellulose (MC)); 7 % of control (dose: 20.0 mg/kg/injection, schedule: Q01DX011 (oral), vehicle: other). In addition, the T/C was 1 % of control and 2 % of control and 20 % of control (dose: 25.0 mg/kg/injection, schedule: Q01DX001 (ip), vehicle: other); 17 % of control (dose: 28.0 mg/kg/injection, schedule: Q07DX002 (ip), vehicle: other); 2 % of control (dose: 38.0 mg/kg/injection, schedule: Q01DX011 (ip), vehicle: methylcellulose (MC)); 9 % of control (dose: 40.0 mg/kg/injection, schedule: Q01DX011 (oral), vehicle: other); 41 % of control (dose: 50.0 mg/kg/injection, schedule: Q01DX001 (ip), vehicle: other); 3 % of control (dose: 56.0 mg/kg/injection, schedule: Q07DX002 (ip), vehicle: other). In addition, the T/C is 1 % of control (dose: 96.0 mg/kg/injection, schedule: Q03DX004 (ip), vehicle: other); 1 % of control (dose: 100.0 mg/kg/injection, schedule: Q01DX001 (ip), vehicle: other); 8 % of control (dose: 112.0 mg/kg/injection, schedule: Q07DX002 (ip), vehicle: other); 45 % of control (dose: 200.0 mg/kg/injection, schedule: Q01DX001 (ip), vehicle: other).

In the case of `CCCCNC(=O)c1n[se]nc1NC(N)=O`, the T/C (dose: 4.0 mg/kg/injection, schedule: Q01DX011 (ip), vehicle: carboxymethylcellulose (CMC)) was 94 % of control; the T/C (dose: 8.0 mg/kg/injection, schedule: Q01DX011 (ip), vehicle: carboxymethylcellulose (CMC)) was 91 % of control; the T/C (dose: 16.0 mg/kg/injection, schedule: Q01DX011 (ip), vehicle: carboxymethylcellulose (CMC)) is 61 % of control; the T/C (dose: 37.5 mg/kg/injection, schedule: Q01DX011 (ip), vehicle: carboxymethylcellulose (CMC)) is 166 % of control; the T/C (dose: 50.0 mg/kg/injection, schedule: Q01DX011 (ip), vehicle: carboxymethylcellulose (CMC)) is 119 % of control.
